Where two headings read alike, the source gives them in different places.
Key:
Assay type in all cases: biochemical
[1] = target: T1, TYK2 (aa 871-1187, catalytic domain, GST-tag) (Homo sapiens, UniProt P29597); test: JAK kinase assay (HTRF, phosphorylation of TK substrate-biotin), TYK2; conditions: ATP at Km (13 μM), read-out: TYK2 kinase inhibitory activity (EC50 indicator)
T1 construct: JAK1 (aa 850-1154) and TYK2 (aa 871-1187) are expressed with an N-terminally fused GST-tag; GST (N); purchased Carna Biosciences, Inc; host or cells: baculovirus expression system
T1 sequence (P29597 871-1187): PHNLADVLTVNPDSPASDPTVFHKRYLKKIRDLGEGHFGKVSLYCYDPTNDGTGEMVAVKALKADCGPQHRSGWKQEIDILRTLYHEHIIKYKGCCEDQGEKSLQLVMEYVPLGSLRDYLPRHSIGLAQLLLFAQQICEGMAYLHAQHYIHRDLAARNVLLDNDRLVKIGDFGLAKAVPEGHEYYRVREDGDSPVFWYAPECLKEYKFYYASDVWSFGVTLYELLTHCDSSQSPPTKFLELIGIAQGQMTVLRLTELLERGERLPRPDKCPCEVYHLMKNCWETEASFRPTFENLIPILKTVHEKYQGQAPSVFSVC
Method: (§1) Human baculovirus-expressed JAK1, 2, 3 and TYK2 were purchased from Carna Biosciences, Inc. All four purified enzymes contain only the catalytic domain. JAK1 (aa 850-1154) and TYK2 (aa 871-1187) are expressed with an N-terminally fused GST-tag, and JAK2 and JAK3 with an N-terminally fused His-tag.
(§2) Inhibition of phosphorylation of a synthetic peptide was measured in an HTRF-based assay using the TK substrate-Biotin from the Cisbio HTRFKinEASE TK kit. First, 2 μl of TK solution (TK substrate-biotin in kinase buffer [1× enzymatic buffer from HTRFKinEASE TK kit, 1 mM DTT]) is added to a plate containing 1 μl prediluted compound (final assay concentration DMSO: 0.75%). Then, 5 μl kinase-ATP mix (prepared in kinase buffer) is added to the wells and the plates are incubated at RT for 20-30 min. For all four kinases a concentration of ATP that corresponded to the Km for ATP was used. The final concentrations of buffers, substrate, kinase and ATP were: JAK1: 50 mM Hepes buffer pH 7.0, 0.01% BSA, 10 mM MgCl2, 1 mM DTT, 7 μM ATP, 50 nM SEB, 1 μM TK Substrate-Biotin and 5 ng JAK1; JAK2: 50 mM Hepes buffer pH 7.0, 0.01% BSA, 5 mM MgCl2, 1 mM DTT, 4 μM ATP, 1 μM TK Substrate-Biotin and 0.1 ng JAK2; JAK3: 50 mM Hepes buffer pH 7.0, 0.01% BSA, 5 mM MgCl2, 1 mM DTT, 2 μM ATP, 1 μM TK Substrate-Biotin and 0.3 ng JAK3; TYK2: 50 mM Hepes buffer pH 7.0, 0.01% BSA, 5 mM MgCl2, 1 mM DTT, 13 μM ATP, 50 nM SEB, 1 μM TK Substrate-Biotin and 0.8 ng TYK2. Thereafter, the kinase reaction is stopped by adding 4 μl detection mix (final concentrations: 50 mM Hepes buffer pH 7.0, 0.01% BSA, 0.8 M KF, 20 mM EDTA, 42 nM Streptavidin-XL665 and 1:400 STK Ab Cryptate) and the plates are incubated overnight in the dark. The HTRF signal is read using an Envision plate reader.
(§3) In Table 1 selected JAK kinase inhibitory activities are listed with the following indicators: I: EC50<100 nM, II: 100 nM≦EC50≦500 nM and III: EC50>500 nM

[2] = target: T2, JAK3 (catalytic domain, His-tag) (Homo sapiens, UniProt P52333); test: JAK kinase assay (HTRF, phosphorylation of TK substrate-biotin), JAK3; conditions: ATP at Km (2 μM), read-out: JAK3 kinase inhibitory activity (EC50 indicator)
T2 construct: All four purified enzymes contain only the catalytic domain; His (N); purchased Carna Biosciences, Inc; host or cells: baculovirus expression system
Method: as §1, §2, §3

[3] = target: T3, JAK1 (aa 850-1154, catalytic domain, GST-tag) (Homo sapiens, UniProt P23458); test: JAK kinase assay (HTRF, phosphorylation of TK substrate-biotin), JAK1; conditions: ATP at Km (7 μM), read-out: JAK1 kinase inhibitory activity (EC50 indicator)
T3 construct: JAK1 (aa 850-1154) and TYK2 (aa 871-1187) are expressed with an N-terminally fused GST-tag; GST (N); purchased Carna Biosciences, Inc; host or cells: baculovirus expression system
Method: as §1, §2, §3

[4] = target: T4, JAK2 (catalytic domain, His-tag) (Homo sapiens, UniProt O60674); test: JAK kinase assay (HTRF, phosphorylation of TK substrate-biotin), JAK2; conditions: ATP at Km (4 μM), read-out: JAK2 kinase inhibitory activity (EC50 indicator)
T4 construct: All four purified enzymes contain only the catalytic domain; His (N); purchased Carna Biosciences, Inc; host or cells: baculovirus expression system
Method: as §1, §2, §3

T3 sequence (P23458 850-1154): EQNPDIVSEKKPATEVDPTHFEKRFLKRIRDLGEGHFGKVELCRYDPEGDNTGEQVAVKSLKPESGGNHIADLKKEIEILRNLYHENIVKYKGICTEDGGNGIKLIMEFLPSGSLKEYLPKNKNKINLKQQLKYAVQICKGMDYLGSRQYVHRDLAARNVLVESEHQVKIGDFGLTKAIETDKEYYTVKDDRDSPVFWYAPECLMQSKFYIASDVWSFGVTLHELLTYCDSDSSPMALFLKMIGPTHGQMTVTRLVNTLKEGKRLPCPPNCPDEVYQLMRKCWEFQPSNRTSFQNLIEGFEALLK
T2 sequence (P52333 822-1111 limits assumed): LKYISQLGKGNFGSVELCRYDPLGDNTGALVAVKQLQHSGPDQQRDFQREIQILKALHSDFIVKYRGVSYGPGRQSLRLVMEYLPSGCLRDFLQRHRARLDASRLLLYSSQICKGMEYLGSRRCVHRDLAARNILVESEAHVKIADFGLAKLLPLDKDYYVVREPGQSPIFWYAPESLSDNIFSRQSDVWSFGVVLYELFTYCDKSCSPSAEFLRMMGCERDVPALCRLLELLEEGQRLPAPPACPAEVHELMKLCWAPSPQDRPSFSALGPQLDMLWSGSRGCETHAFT
T4 sequence (O60674 849-1124 limits assumed): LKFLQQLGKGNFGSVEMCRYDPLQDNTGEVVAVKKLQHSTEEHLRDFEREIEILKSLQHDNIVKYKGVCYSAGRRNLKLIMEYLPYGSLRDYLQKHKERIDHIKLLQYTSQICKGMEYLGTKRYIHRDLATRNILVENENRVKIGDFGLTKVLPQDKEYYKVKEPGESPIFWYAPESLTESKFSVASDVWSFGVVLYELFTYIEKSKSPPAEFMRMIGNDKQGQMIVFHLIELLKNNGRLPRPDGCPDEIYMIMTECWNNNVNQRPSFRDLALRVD

| SMILES | EC50 [1] [nM] | EC50 [2] [nM] | EC50 [3] [nM] | EC50 [4] [nM] | EC50 ([1]; HTRF assay) [nM] | EC50 ([2]; HTRF assay) [nM] | EC50 ([3]; HTRF assay) [nM] | EC50 ([4]; HTRF assay) [nM] |
| --- | --- | --- | --- | --- | --- | --- | --- | --- |
| Cc1c[nH]c2ncnc(N3CCN(C(=O)c4cnc5ccccc5n4)C4(CC4)C3)c12 [Example 120, [7-(5-Methyl-7H-pyrrolo[2,3-d]pyrimidin-4-yl)-4,7-diaza-spiro[2.5]oct-4-yl]-quinoxalin-2-yl-methanone] | > 500 | > 500 | > 500 | > 500 | – | – | – | – |
| N#Cc1cccc(C(=O)N2CCN(c3nc(N)nc4[nH]ccc34)CC23CC3)c1 [Example 304, 3-[7-(2-Amino-7H-pyrrolo[2,3-d]pyrimidin-4-yl)-4,7-diaza-spiro[2.5]octane-4-carbonyl]-benzonitrile] | – | – | – | – | 100 to 500 | < 100 | < 100 | < 100 |
| CN(CCC#N)C(=O)C1(C(=O)N2CCN(c3ncnc4[nH]ccc34)CC23CC3)CC1 [Example 87, 1-[7-(7H-Pyrrolo[2,3-d]pyrimidin-4-yl)-4,7-diaza-spiro[2.5]octane-4-carbonyl]-cyclopropanecarboxylic acid (2-cyano-ethyl)-methyl-amide] | > 500 | > 500 | > 500 | > 500 | – | – | – | – |
| NS(=O)(=O)c1cnn(CC(=O)N2CCN(c3ncnc4[nH]ccc34)CC23CC3)c1 [Example 412, 1-{2-Oxo-2-[7-(7H-pyrrolo[2,3-d]pyrimidin-4-yl)-4,7-diaza-spiro[2.5]oct-4-yl]-ethyl}-1H-pyrazole-4-sulfonic acid amide] | – | – | – | – | > 500 | < 100 | < 100 | < 100 |
| COC(=O)c1cc2c(N3CCN(C(=O)CCC#N)C4(CC4)C3)ncnc2[nH]1 [Example 340] | – | – | – | – | > 500 | > 500 | > 500 | > 500 |
| O=C(c1cc2ccccc2[nH]1)N1[C@@H]2CC[C@H]1CN(c1ncnc3[nH]ccc13)C2 [Example 348, (1H-Indol-2-yl)-[3-(7H-pyrrolo[2,3-d]pyrimidin-4-yl)-3,8-diaza-bicyclo[3.2.1]oct-8-yl]-methanone] | – | – | – | – | > 500 | < 100 | < 100 | < 100 |
| Cc1ccc2[nH]c(C(=O)N3CCN(c4ncnc5[nH]ccc45)CC34CC4)cc2c1 [Example 184, (5-Methyl-1H-indol-2-yl)-[7-(7H-pyrrolo[2,3-d]pyrimidin-4-yl)-4,7-diaza-spiro[2.5]oct-4-yl]-methanone] | 100 to 500 | < 100 | < 100 | < 100 | – | – | – | – |
| COC(=O)c1cc2c(N3CCN(C(=O)Cc4ccc(CC#N)cc4)C4(CC4)C3)ncnc2[nH]1 [Example 122, 4-{4-[2-(4-Cyanomethyl-phenyl)-acetyl]-4,7-diaza-spiro[2.5]oct-7-yl}-7H-pyrrolo[2,3-d]pyrimidine-6-carboxylic acid methyl ester] | > 500 | > 500 | > 500 | > 500 | – | – | – | – |
| NS(=O)(=O)c1cc(OCC(=O)N2CCN(c3ncnc4[nH]ccc34)CC23CC3)ccc1Cl [Example 102, 2-Chloro-5-{2-oxo-2-[7-(7H-pyrrolo[2,3-d]pyrimidin-4-yl)-4,7-diaza-spiro[2.5]oct-4-yl]-ethoxy}-benzenesulfonamide] | 100 to 500 | < 100 | < 100 | < 100 | – | – | – | – |
| Cc1cc(C(=O)N2[C@@H]3CC[C@H]2CN(c2ncnc4[nH]ccc24)C3)ccc1S(N)(=O)=O [Example 392, 2-Methyl-4-[3-(7H-pyrrolo[2,3-d]pyrimidin-4-yl)-3,8-diaza-bicyclo[3.2.1]octane-8-carbonyl]-benzenesulfonamide] | – | – | – | – | > 500 | < 100 | < 100 | < 100 |
| O=C(c1csc2ccccc12)N1[C@H]2CC[C@H]1CN(c1ncnc3[nH]ccc13)C2 [Example 246, Benzo[b]thiophen-3-yl-[3-(7H-pyrrolo[2,3-d]pyrimidin-4-yl)-3,8-diaza-bicyclo[3.2.1]oct-8-yl]-methanone] | – | – | – | – | 100 to 500 | < 100 | < 100 | < 100 |
| O=C(c1cccc(-c2ccccc2)c1)N1CCN(c2ncnc3[nH]ccc23)CC12CC2 [Example 6, Biphenyl-3-yl-[7-(7H-pyrrolo[2,3-d]pyrimidin-4-yl)-4,7-diazaspiro[2.5]oct-4-yl]methanone] | 100 to 500 | 100 to 500 | < 100 | < 100 | – | – | – | – |
| COc1cnc2[nH]ccc2c1N1CCN(C(=O)c2cc3ccccc3[nH]2)C2(CC2)C1 [Example 288, (1H-Indol-2-yl)-[7-(5-methoxy-1H-pyrrolo[2,3-b]pyridin-4-yl)-4,7-diaza-spiro[2.5]oct-4-yl]-methanone] | – | – | – | – | > 500 | 100 to 500 | > 500 | > 500 |
| COc1cc(C(=O)N2CCN(c3ncnc4[nH]ccc34)CC23CC3)ccc1S(N)(=O)=O [Example 378, 2-Methoxy-4-[7-(7H-pyrrolo[2,3-d]pyrimidin-4-yl)-4,7-diaza-spiro[2.5]octane-4-carbonyl]-benzenesulfonamide] | – | – | – | – | < 100 | < 100 | < 100 | < 100 |
| O=C(c1cccc(OC(F)(F)F)c1)N1[C@@H]2CC[C@@H]1CN(c1ncnc3[nH]ccc13)C2 [Example 244, [3-(7H-Pyrrolo[2,3-d]pyrimidin-4-yl)-3,8-diaza-bicyclo[3.2.1]oct-8-yl]-(3-trifluoromethoxy-phenyl)-methanone] | – | – | – | – | > 500 | < 100 | < 100 | < 100 |
| N#Cc1ccc2[nH]c(C(=O)N3C4CCC3CN(c3ncnc5[nH]ccc35)C4)cc2c1 [Example 129, 2-[3-(7H-Pyrrolo[2,3-d]pyrimidin-4-yl)-3,8-diaza-bicyclo[3.2.1]octane-8-carbonyl]-1H-indole-5-carbonitrile] | > 500 | < 100 | < 100 | < 100 | – | – | – | – |
| COCCOC(=O)N1[C@@H]2CC[C@H]1CN(c1ncnc3[nH]ccc13)C2 [Example 12, 3-(7H-Pyrrolo[2,3-d]pyrimidin-4-yl)-3,8-diazabicyclo[3.2.1]octane-8-carboxylic acid 2-methoxyethyl ester] | > 500 | > 500 | 100 to 500 | 100 to 500 | – | – | – | – |
| Cc1cncc(C(=O)N2[C@@H]3CC[C@H]2CN(c2ncnc4[nH]ccc24)C3)n1 [Example 73, (6-Methyl-pyrazin-2-yl)-[3-(7H-pyrrolo[2,3-d]pyrimidin-4-yl)-3,8-diaza-bicyclo[3.2.1]oct-8-yl]-methanone] | > 500 | 100 to 500 | < 100 | 100 to 500 | – | – | – | – |
| CC1CN(C(=O)c2cccc(C#N)c2)C2(CC2)CN1c1ncnc2[nH]ccc12 (stereo not shown) [Example 145, 3-[6-Methyl-7-(7H-pyrrolo[2,3-d]pyrimidin-4-yl)-4,7-diaza-spiro[2.5]octane-4-carbonyl]-benzonitrile] | 100 to 500 | 100 to 500 | < 100 | < 100 | – | – | – | – |
